{"source": "patent US12466839B2", "about": "“Allosteric AKT inhibitors for use in the treatment of Hereditary Hemorrhagic Telangiectasia” (VADERIS THERAPEUTICS AG, priority 2020, dated 2025)", "key": {"A3": {"target": "T1, A3 (Homo sapiens, UniProt P0DMS8)", "T1 construct": "purchased Millipore", "T1 sequence (P0DMS8 whole entry)": "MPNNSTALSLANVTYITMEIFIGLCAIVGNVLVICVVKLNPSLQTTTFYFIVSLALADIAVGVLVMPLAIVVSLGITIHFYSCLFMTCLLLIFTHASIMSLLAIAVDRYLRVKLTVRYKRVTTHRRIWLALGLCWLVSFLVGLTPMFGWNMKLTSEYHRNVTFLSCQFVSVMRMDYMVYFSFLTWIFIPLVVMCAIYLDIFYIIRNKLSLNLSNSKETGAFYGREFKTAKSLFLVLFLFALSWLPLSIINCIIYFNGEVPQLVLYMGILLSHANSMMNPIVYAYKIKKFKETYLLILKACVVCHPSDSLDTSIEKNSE", "test": "Millipore Drug Discovery Safety and Liability Panel", "type": "cell-based"}, "minK (Homo sapiens)": {"tested_on": "minK (Homo sapiens)", "test": "Cardiac ion channel profile", "type": "cell-based"}, "Nav1.5": {"target": "Nav1.5 (Homo sapiens, UniProt Q14524)", "test": "Cardiac ion channel profile", "type": "cell-based"}, "5-HT2B": {"target": "T2, 5-HT2B (Homo sapiens, UniProt P41595)", "T2 construct": "purchased Millipore", "T2 sequence (P41595 whole entry, species assumed)": "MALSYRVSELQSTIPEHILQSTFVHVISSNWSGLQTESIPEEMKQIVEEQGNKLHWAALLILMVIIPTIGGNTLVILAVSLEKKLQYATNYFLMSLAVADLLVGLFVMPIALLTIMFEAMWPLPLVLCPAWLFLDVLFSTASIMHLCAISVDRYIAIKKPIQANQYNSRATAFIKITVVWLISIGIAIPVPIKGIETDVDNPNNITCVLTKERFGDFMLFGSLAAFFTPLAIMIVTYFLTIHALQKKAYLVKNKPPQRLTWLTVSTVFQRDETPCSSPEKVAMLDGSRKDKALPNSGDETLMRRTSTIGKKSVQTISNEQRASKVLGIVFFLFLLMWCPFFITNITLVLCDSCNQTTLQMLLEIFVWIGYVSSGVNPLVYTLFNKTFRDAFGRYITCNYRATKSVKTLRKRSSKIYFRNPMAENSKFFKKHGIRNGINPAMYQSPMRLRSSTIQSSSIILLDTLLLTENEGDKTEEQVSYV", "test": "Millipore Drug Discovery Safety and Liability Panel", "type": "cell-based"}, "AKT": {"tested_on": "AKT", "test": "AKT inhibition in primary lung endothelial cells with normal Eng expression (western blot)", "type": "cell-based", "details": "Mus musculus, Endothelial cell; lung ECs from controls with normal level of Eng expression; VEGF-A stimulation", "protocol": "Lungs from Engflox/flox pups were surgically removed, rinsed in ice-cold DMEM and endothelial cells were isolated as described in Galaris et al., (2021) “In vitro Three-Dimensional Sprouting Assay of Angiogenesis using Mouse Embryonic Stem Cells for Vascular Disease Modeling and Drug Testing” J Vis Exp (171). In summary, tissues were minced by the use of scissors, digested in DMEM-3 mg·ml-1 Collagenase A (10103586001, Roche) for 15 min at 37° C. and then filtered through a 70-μm strainer. The cell suspension was centrifuged at 200 g for 5 min and CD45+ cells were removed using Dynabeads sheep anti-Rat IgG (11035, Invitrogen) coated with rat anti-mouse CD45 antibody (550539, BD Pharmigen). Endothelial cells were sorted using Dynabeads sheep anti-Rat IgG (11035, Invitrogen) coated with rat anti-mouse PECAM1 antibody (550274, BD Pharmigen) according to the manufacturer's instructions. After washing 5 times with DMEM-0.1% BSA, cells were seeded in 6 well plates. Lung and liver ECs were maintained for two-three passages in Endothelial Cell Growth Medium 2 (C-22011, PromoCell) complemented with Fetal Calf Serum, Human Epidermal Growth Factors, Basic Fibroblast Growth Factor, Insulin like Growth Factor, Human Vascular Endothelial Growth Factor-165, Ascorbic acid, Heparin and Hydrocortisone (C-39211, SupplementPack EC GM2, PromoCell). […]"}, "ETB": {"target": "T3, ETB (Homo sapiens, UniProt P24530)", "T3 construct": "purchased Millipore", "T3 sequence (P24530 27-442, species assumed)": "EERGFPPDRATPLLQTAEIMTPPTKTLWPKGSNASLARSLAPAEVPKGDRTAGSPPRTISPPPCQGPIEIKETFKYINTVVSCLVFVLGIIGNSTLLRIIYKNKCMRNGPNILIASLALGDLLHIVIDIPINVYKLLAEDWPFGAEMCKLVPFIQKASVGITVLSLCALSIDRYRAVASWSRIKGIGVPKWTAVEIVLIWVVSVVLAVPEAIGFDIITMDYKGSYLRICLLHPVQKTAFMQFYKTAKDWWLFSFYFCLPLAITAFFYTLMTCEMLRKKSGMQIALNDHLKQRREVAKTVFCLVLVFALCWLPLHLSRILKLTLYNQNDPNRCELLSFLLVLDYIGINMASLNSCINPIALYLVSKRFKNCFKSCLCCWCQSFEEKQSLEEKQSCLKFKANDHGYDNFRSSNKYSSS", "test": "Millipore Drug Discovery Safety and Liability Panel", "type": "cell-based"}, "M3": {"target": "T4, M3 (Homo sapiens, UniProt P20309)", "T4 construct": "purchased Millipore", "T4 sequence (P20309 whole entry)": "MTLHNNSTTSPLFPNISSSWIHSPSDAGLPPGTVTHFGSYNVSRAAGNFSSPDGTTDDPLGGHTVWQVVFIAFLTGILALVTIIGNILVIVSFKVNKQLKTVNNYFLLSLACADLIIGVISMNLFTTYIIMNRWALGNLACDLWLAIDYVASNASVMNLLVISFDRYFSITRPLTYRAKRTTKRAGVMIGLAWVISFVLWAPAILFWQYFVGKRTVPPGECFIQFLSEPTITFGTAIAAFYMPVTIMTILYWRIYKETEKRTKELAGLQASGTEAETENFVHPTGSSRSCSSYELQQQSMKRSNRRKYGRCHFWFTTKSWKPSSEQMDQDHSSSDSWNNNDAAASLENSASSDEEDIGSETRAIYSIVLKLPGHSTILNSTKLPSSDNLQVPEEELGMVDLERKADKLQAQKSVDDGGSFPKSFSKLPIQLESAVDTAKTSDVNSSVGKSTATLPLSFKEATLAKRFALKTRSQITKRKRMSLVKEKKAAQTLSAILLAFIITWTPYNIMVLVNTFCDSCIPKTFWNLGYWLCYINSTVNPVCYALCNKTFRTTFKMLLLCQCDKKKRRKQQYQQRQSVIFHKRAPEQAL", "test": "Millipore Drug Discovery Safety and Liability Panel", "type": "cell-based"}, "TP": {"target": "T5, TP (Homo sapiens, UniProt P21731)", "T5 construct": "Millipore", "T5 sequence (P21731 whole entry)": "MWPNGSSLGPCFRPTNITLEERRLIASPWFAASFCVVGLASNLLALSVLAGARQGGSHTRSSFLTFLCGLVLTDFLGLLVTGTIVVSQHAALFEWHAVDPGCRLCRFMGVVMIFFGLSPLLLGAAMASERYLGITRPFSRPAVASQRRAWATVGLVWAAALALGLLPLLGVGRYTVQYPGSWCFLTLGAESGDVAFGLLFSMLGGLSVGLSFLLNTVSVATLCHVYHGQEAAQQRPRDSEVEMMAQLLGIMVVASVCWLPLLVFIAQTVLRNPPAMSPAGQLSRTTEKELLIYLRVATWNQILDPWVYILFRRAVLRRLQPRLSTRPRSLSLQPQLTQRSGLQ", "test": "Millipore Drug Discovery Safety and Liability Panel", "type": "cell-based"}, "CGRP1": {"target": "T6, CGRP1 (Homo sapiens, UniProt O60894+Q16602)", "T6 construct": "purchased Millipore", "T6 sequence (Q16602 23-461)": "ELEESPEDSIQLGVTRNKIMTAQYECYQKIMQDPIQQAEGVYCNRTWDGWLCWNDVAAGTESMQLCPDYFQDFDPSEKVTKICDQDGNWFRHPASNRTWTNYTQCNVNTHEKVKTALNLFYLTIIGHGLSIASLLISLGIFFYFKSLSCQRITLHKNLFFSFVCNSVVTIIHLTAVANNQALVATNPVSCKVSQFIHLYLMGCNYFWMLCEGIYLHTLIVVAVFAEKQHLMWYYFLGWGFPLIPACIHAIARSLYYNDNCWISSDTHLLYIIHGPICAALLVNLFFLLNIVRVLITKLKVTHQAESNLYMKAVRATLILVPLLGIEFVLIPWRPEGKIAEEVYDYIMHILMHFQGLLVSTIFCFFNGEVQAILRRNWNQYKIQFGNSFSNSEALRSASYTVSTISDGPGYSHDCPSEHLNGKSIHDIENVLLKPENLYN", "T6 sequence (O60894 27-148 partner)": "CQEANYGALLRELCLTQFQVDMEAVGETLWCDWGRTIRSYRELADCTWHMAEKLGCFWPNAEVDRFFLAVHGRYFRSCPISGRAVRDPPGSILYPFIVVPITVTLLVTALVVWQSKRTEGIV", "test": "Millipore Drug Discovery Safety and Liability Panel", "type": "cell-based"}, "AKT3": {"target": "AKT3 (Homo sapiens, UniProt Q9Y243)", "test": "Panel of 450 kinases", "type": "biochemical"}, "D5": {"target": "T7, D5 (Homo sapiens, UniProt P21918)", "T7 construct": "purchased Millipore", "T7 sequence (P21918 whole entry)": "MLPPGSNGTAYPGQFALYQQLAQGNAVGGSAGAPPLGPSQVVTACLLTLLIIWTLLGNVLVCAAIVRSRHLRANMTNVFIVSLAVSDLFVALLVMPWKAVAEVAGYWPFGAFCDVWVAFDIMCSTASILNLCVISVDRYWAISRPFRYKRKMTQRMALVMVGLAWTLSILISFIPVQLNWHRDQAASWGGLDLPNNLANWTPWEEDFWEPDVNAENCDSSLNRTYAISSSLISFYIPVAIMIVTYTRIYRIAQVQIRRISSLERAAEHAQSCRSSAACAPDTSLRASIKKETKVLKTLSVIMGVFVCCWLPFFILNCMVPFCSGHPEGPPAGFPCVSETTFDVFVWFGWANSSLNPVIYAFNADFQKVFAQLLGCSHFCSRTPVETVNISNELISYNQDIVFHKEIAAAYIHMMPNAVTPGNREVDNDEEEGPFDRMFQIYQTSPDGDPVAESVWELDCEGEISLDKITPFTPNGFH", "test": "Millipore Drug Discovery Safety and Liability Panel", "type": "cell-based"}, "5-HT2A": {"target": "T8, 5-HT2A (Homo sapiens, UniProt P28223)", "T8 construct": "purchased Millipore", "T8 sequence (P28223 whole entry)": "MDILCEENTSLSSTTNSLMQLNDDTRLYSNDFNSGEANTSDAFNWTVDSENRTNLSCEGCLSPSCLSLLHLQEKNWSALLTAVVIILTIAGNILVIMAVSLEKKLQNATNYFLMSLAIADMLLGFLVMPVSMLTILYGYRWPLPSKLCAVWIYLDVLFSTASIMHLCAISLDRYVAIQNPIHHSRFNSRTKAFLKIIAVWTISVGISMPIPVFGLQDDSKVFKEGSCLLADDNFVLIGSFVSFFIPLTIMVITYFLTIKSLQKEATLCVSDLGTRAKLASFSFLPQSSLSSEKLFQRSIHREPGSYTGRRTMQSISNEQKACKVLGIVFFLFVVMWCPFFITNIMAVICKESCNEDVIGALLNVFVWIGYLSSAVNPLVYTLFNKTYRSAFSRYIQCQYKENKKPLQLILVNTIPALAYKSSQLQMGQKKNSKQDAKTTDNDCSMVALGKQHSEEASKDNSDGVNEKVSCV", "test": "Millipore Drug Discovery Safety and Liability Panel", "type": "cell-based"}, "CX3CR1": {"target": "T9, CX3CR1 (Homo sapiens, UniProt P49238)", "T9 construct": "purchased Millipore", "T9 sequence (P49238 whole entry)": "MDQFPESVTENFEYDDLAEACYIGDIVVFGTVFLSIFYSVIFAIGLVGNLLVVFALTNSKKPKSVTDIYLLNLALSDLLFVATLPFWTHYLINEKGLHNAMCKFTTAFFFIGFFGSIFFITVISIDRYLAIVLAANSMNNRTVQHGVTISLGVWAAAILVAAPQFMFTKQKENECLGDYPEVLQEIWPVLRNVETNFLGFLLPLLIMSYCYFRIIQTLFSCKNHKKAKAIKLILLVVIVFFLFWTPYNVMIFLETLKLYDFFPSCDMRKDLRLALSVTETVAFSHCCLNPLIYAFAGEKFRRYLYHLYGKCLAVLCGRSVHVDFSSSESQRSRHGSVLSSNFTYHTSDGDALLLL", "test": "Millipore Drug Discovery Safety and Liability Panel", "type": "cell-based"}, "CB1": {"target": "T10, CB1 (Homo sapiens, UniProt P21554)", "T10 construct": "purchased Millipore", "T10 sequence (P21554 whole entry)": "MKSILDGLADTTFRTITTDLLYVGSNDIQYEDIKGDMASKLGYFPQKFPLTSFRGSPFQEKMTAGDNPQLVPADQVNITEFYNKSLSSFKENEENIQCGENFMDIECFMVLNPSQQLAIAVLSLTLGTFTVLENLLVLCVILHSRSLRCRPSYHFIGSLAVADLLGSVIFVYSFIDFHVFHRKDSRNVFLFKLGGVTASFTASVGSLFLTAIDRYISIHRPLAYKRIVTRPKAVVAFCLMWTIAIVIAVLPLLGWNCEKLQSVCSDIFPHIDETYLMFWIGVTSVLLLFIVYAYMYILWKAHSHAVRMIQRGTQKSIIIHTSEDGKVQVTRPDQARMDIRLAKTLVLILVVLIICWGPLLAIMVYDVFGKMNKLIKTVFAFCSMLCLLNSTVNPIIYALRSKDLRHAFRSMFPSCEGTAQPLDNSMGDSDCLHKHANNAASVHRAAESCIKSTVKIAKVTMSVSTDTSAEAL", "test": "Millipore Drug Discovery Safety and Liability Panel", "type": "cell-based"}, "NMU1": {"target": "T11, NMU1 (Homo sapiens, UniProt Q9HB89)", "T11 construct": "Millipore", "T11 sequence (Q9HB89 whole entry)": "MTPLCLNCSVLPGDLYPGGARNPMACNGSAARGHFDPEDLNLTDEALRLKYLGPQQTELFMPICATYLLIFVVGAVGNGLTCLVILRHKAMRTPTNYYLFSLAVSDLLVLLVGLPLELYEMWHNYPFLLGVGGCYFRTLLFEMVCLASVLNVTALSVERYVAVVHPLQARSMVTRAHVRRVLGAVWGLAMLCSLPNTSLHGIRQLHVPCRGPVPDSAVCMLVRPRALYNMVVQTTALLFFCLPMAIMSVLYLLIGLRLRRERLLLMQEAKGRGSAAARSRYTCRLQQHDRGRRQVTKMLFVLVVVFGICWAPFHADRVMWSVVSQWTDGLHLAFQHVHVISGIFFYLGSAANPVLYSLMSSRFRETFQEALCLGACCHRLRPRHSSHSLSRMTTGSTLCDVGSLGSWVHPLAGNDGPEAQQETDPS", "test": "Millipore Drug Discovery Safety and Liability Panel", "type": "cell-based"}, "[1]": {"details": "read-out: AGONIST mean % increase in activity"}, "[2]": {"details": "read-out: ANTAGONIST mean % inhibition"}}, "data": [{"smiles": "CCN1C(=O)COc2nc(-c3ccc(C4(N)CC(O)C4)cc3)c(-c3ccccc3)cc21.O=C(O)C(O)C(O)C(=O)O", "note": "[VAD044, 6-(4-(1-amino-3-hydroxycyclobutyl)phenyl)-1-ethyl-7-phenyl-1H-pyrido[2,3-b][1,4]oxazin-2(3H)-one L-tartrate]", "values": [{"measurement": "activation at 10 µM", "setting": "A3; [1]", "value": 0.2, "unit": "%"}, {"measurement": "inhibition at 10 µM", "setting": "A3; [2]", "value": 28.5, "unit": "%"}, {"measurement": "inhibition at 10 µM", "setting": "minK (Homo sapiens)", "value": "< 25", "unit": "%"}, {"measurement": "inhibition at 10 µM", "setting": "Nav1.5", "value": "< 25", "unit": "%"}, {"measurement": "activation at 10 µM", "setting": "5-HT2B; [1]", "value": 3.7, "unit": "%"}, {"measurement": "inhibition at 10 µM", "setting": "5-HT2B; [2]", "value": 7.6, "unit": "%"}, {"measurement": "IC50", "setting": "AKT", "value": 55, "unit": "nM"}, {"measurement": "activation at 10 µM", "setting": "ETB; ETB, 10 μM, read-out: AGONIST mean % increase in activity", "value": -1.1, "unit": "%"}, {"measurement": "inhibition at 10 µM", "setting": "ETB; [2]", "value": 2.9, "unit": "%"}, {"measurement": "activation at 10 µM", "setting": "M3; M3, 10 μM, read-out: AGONIST mean % increase in activity", "value": -0.5, "unit": "%"}, {"measurement": "inhibition at 10 µM", "setting": "M3; [2]", "value": 5.3, "unit": "%"}, {"measurement": "activation at 10 µM", "setting": "TP; TP, 10 μM, read-out: AGONIST mean % increase in activity", "value": -0.5, "unit": "%"}, {"measurement": "inhibition at 10 µM", "setting": "TP; [2]", "value": 0, "unit": "%"}, {"measurement": "activation at 10 µM", "setting": "CGRP1; CGRP1, 10 μM, read-out: AGONIST mean % increase in activity", "value": -0.1, "unit": "%"}, {"measurement": "inhibition at 10 µM", "setting": "CGRP1; [2]", "value": -7.9, "unit": "%"}, {"measurement": "inhibition at 10 µM", "setting": "AKT3", "value": 72, "unit": "%"}, {"measurement": "activation at 10 µM", "setting": "D5; [1]", "value": -0.8, "unit": "%"}, {"measurement": "inhibition at 10 µM", "setting": "D5; [2]", "value": 35.4, "unit": "%"}, {"measurement": "activation at 10 µM", "setting": "5-HT2A; [1]", "value": 1.3, "unit": "%"}, {"measurement": "inhibition at 10 µM", "setting": "5-HT2A; [2]", "value": -0.7, "unit": "%"}, {"measurement": "AGONIST mean % increase in activity", "setting": "CX3CR1; CX3CR1, 10 μM", "value": 0, "unit": "%"}, {"measurement": "inhibition at 10 µM", "setting": "CX3CR1; [2]", "value": 0.6, "unit": "%"}, {"measurement": "activation at 10 µM", "setting": "CB1; CB1, 10 μM, read-out: AGONIST mean % increase in activity", "value": -0.5, "unit": "%"}, {"measurement": "inhibition at 10 µM", "setting": "CB1; [2]", "value": -4.1, "unit": "%"}, {"measurement": "activation at 10 µM", "setting": "NMU1; NMU1, 10 μM, read-out: AGONIST mean % increase in activity", "value": -3.1, "unit": "%"}, {"measurement": "inhibition at 10 µM", "setting": "NMU1; [2]", "value": 5.5, "unit": "%"}]}]}
